Oligonucleotides are written 5' to 3', each unit as a sugar letter and its base; * is a phosphorothioate linkage, no mark a phosphodiester; rarer units and linkages stand in square brackets, end groups in braces. Plain capitals give the bases only. k = constrained ethyl (cEt); [5mC] = 5-methylcytosine; d = 2'-deoxy (DNA)
Columns and labels:
[1] = tested on: KLK2 mRNA; test: KLK2 mRNA (AR target gene) in C4-2B MR cells; assay type: cell-based, human
[2] = tested on: prostate-specific antigen (PSA) mRNA; test: PSA mRNA levels in LMR20 cells; assay type: cell-based, human; details: for PSA mRNA levels (% baseline value) after treatment with DHT / PSA mRNA levels (% baseline value) after treatment with R1881 / PSA mRNA levels (% baseline value) of cells without AR agonist treatment: LMR20 cells; for PSA mRNA levels (% baseline value) after treatment with DHT: DHT 10 nM 72 hrs; for PSA mRNA levels (% baseline value) after treatment with R1881: R1881 10 nM 72 hrs; for PSA mRNA levels (% baseline value) of cells without AR agonist treatment: no AR agonist
Experimental: LMR20 cells were plated at 1,500 cells per well in phenol red-free medium with CSS. […] Results are presented in Tables 43-45 as mRNA levels expressed as a percentage of the baseline values. mRNA levels may be lowered or increased after treatment.

## 549372 (kA*kA*kG*dT*dT*dG*dT*dA*dG*dT*dA*dG*dT*k[5mC]*kG*k[5mC]) [compound 549372]
[1]; 0.04 μM
  Percent inhibition of KLK2 mRNA in C4-2B MR cells: 14%
[1]; 0.20 μM
  Percent inhibition of KLK2 mRNA in C4-2B MR cells: 16%
[1]; 1.00 μM
  Percent inhibition of KLK2 mRNA in C4-2B MR cells: 57%
[1]; 5.00 μM
  Percent inhibition of KLK2 mRNA in C4-2B MR cells: 87%

## GTTGATTTAATGGTTG (all phosphorothioate, sugars by position not given here; further chemistry not fully specified) [ISIS 549458]
[2]; with or without DHT/R1881
  PSA mRNA levels in LMR20 cells: reduced PSA levels and TMPRSS2 more extensively than the LNA gapmer ISIS 554221 or MDV3100
[1]; C4-2B MR cells, 0.04-5.00 μM
  AR target gene KLK2 mRNA levels: reduced target gene levels in a dose dependent manner more extensively than treatment with ISIS 554221

## 549458 (kG*kT*kT*dG*dA*dT*dT*dT*dA*dA*dT*dG*dG*kT*kT*kG) [compound 549458]
[2]; ASO 0.04 μM
  PSA mRNA levels (% baseline value) after treatment with DHT: 93 % baseline value
  PSA mRNA levels (% baseline value) after treatment with R1881: 93 % baseline value
  PSA mRNA levels (% baseline value) of cells without AR agonist treatment: 135 % baseline value
[2]; ASO 0.20 μM
  PSA mRNA levels (% baseline value) after treatment with DHT: 71 % baseline value
  PSA mRNA levels (% baseline value) after treatment with R1881: 67 % baseline value
  PSA mRNA levels (% baseline value) of cells without AR agonist treatment: 85 % baseline value
[2]; ASO 1.0 μM
  PSA mRNA levels (% baseline value) after treatment with DHT: 47 % baseline value
  PSA mRNA levels (% baseline value) after treatment with R1881: 50 % baseline value
  PSA mRNA levels (% baseline value) of cells without AR agonist treatment: 50 % baseline value
[2]; ASO 5.0 μM
  PSA mRNA levels (% baseline value) after treatment with DHT: 47 % baseline value
  PSA mRNA levels (% baseline value) after treatment with R1881: 44 % baseline value
  PSA mRNA levels (% baseline value) of cells without AR agonist treatment: 72 % baseline value
[1]; 0.04 μM
  Percent inhibition of KLK2 mRNA in C4-2B MR cells: 35%
[1]; 0.20 μM
  Percent inhibition of KLK2 mRNA in C4-2B MR cells: 47%
[1]; 1.00 μM
  Percent inhibition of KLK2 mRNA in C4-2B MR cells: 87%
[1]; 5.00 μM
  Percent inhibition of KLK2 mRNA in C4-2B MR cells: 93%

Source: patent publication USRE48461E1, “Modulation of androgen receptor expression” (Ionis Pharmaceuticals, Inc., priority 2012, dated 2021)
